From patent US8501961B2, “HIV protease inhibitors and methods for using” (priority 2008, dated 2013)

Experiments:
HIV-1 protease = HIV-1 protease (Human immunodeficiency virus type 1 group M subtype B (isolate HXB2) (HIV-1), UniProt P04585); test: HIV-1 protease enzyme inhibitory assay (protocol of Toth and Marshall); type: biochemical; settings: for fold reduction in enzymatic inhibitory potency with respect to 3d: vs 3d; for potency compared to 3i: vs 3i
From the text: In another embodiment, inhibitors described herein contain a (R)-hydroxyethylamine sulfonamide isostere with a p-methoxysulfonamide as the P2′-ligand and various designed cyclic ethers and polyethers as the P2-ligands. In another embodiment, assays are described herein for evaluating compounds. Illustrative inhibitors described herein are initially evaluated in an enzyme inhibitory assay utilizing a protocol described by Toth and Marshall (Toth, M. V.; Marshall, G. R. A simple, continuous fluorometric assay for HIV protease. Int. J. Pep. Protein Res. 1990, 36, 544-550). […]

HIV-1-LAI = test: Antiviral assay in MT-2 cells, inhibition of HIV-1-elicited cytopathic effect; type: cell-based; settings: Human immunodeficiency virus 1, T-lymphoid, MT-2 human T-lymphoid cells exposed to HIV-1-LAI
[1] = Table 1, mean values of at least four determinations
[2] = Table 3, means of at least two experiments

Q: With COc1ccc(S(=O)(=O)N(CC(C)C)C[C@@H](O)[C@H](Cc2ccccc2)NC(=O)O[C@H]2CCCOCOC2)cc1 [Inhibitor 3a, (1S,2R)-{1-Benzyl-2-hydroxy-3-[isobutyl(4-methoxybenzenesulfonyl)amino]propyl}carbamic acid (1S)-3,5-dioxacyclooctan-1-yl ester] as the compound, how does the Ki (HIV-1 protease; [1]) read?
A: 0.15 ± 0.019 nM

Q: Which results are given for COc1ccc(S(=O)(=O)N(CC(C)C)C[C@@H](O)[C@H](Cc2ccccc2)NC(=O)O[C@@H]2CCCCOC2)cc1 [Inhibitor 3e, (1S,2R)-{1-Benzyl-2-hydroxy-3-[isobutyl(4-methoxybenzenesulfonyl)amino]propyl}carbamic acid (R)-oxepan-3-yl ester]?
A: Ki (HIV-1 protease; [1]): 0.81 ± 0.12 nM; fold reduction in enzymatic inhibitory potency with respect to 3d (HIV-1 protease): ~30 fold

Q: What does the source list for COc1ccc(S(=O)(=O)N(CC(C)C)C[C@@H](O)[C@H](Cc2ccccc2)NC(=O)O[C@H]2CCCOCC2)cc1 [Inhibitor 3f, (1S,2R)-{1-Benzyl-2-hydroxy-3-[isobutyl(4-methoxybenzenesulfonyl)amino]propyl}carbamic acid (S)-oxepan-4-yl ester]?
A: Ki (HIV-1 protease; [1]): 0.74 ± 0.15 nM; fold reduction in enzymatic inhibitory potency with respect to 3d (HIV-1 protease): ~30 fold

Q: Which Ki (HIV-1 protease; [1]) does the source give for COc1ccc(S(=O)(=O)N(CC(C)C)C[C@@H](O)[C@H](Cc2ccccc2)NC(=O)OC2CCCCCC2)cc1 [Inhibitor 3g, (1S,2R)-{1-Benzyl-2-hydroxy-3-[isobutyl(4-methoxybenzenesulfonyl)amino]propyl}carbamic acid Cycloheptanyl ester] here?
A: 27 ± 0.81 nM

Q: With COc1ccc(S(=O)(=O)N(CC(C)C)C[C@@H](O)[C@H](Cc2ccccc2)NC(=O)OC2COCCOCCOCCOC2)cc1 [Inhibitor 3j, (1S,2R)-{1-Benzyl-2-hydroxy-3-[isobutyl(4-methoxybenzenesulfonyl)amino]propyl}carbamic acid 3,6,9,12-tetraoxacyclotridecan-1-yl ester] as the compound, how does the Ki (HIV-1 protease; [1]) read?
A: 33 ± 1.9 nM

Q: COc1ccc(S(=O)(=O)N(CC(C)C)C[C@@H](O)[C@H](Cc2ccccc2)NC(=O)OC2COCCOCOCCOC2)cc1 [Inhibitor 3k, (1S,2R)-{1-Benzyl-2-hydroxy-3-[isobutyl(4-methoxybenzenesulfonyl)amino]propyl}carbamic acid 3,6,8,11-tetraoxacyclododecan-1-yl ester] was tested. Which IC50 (HIV-1-LAI) did it give?
A: > 1000 nM

Q: What about the Ki (HIV-1 protease; [1]) of the same compound?
A: 6.3 ± 0.57 nM

Q: What about the “potency compared to 3i” value (HIV-1 protease) of the same compound?
A: more than 2 fold

Q: And the “fold potency enhancement compared to inhibitor 3j” value (HIV-1 protease; vs 3j)?
A: 5 fold

Q: COc1ccc(S(=O)(=O)N(CC(C)C)C[C@@H](O)[C@H](Cc2ccccc2)NC(=O)OC2COCCS(=O)(=O)CCOC2)cc1 [Inhibitor 3l, (1S,2R)-{1-Benzyl-2-hydroxy-3-[isobutyl(4-methoxybenzenesulfonyl)amino]propyl}carbamic acid 3,9-dioxa-6-thiacyclodecan-1-yl 6,6-dioxide ester] was tested. Which IC50 (HIV-1-LAI) did it give?
A: > 1000 nM

Q: What about the Ki (HIV-1 protease; [1]) of the same compound?
A: 1.9 ± 0.2 nM

Q: What about the “potency compared to 3i” value (HIV-1 protease) of the same compound?
A: 9 fold

Q: Which results are given for COc1ccc(S(=O)(=O)N(CC(C)C)C[C@@H](O)[C@H](Cc2ccccc2)NC(=O)OC2COCCN(C)CCOC2)cc1 [Inhibitor 3m, (1S,2R)-{1-Benzyl-2-hydroxy-3-[isobutyl(4-methoxybenzenesulfonyl)amino]propyl}carbamic acid N-methyl-1,7-dioxa-4-azocyclodecan-9-yl ester]?
A: IC50 (HIV-1-LAI): > 1000 nM; Ki (HIV-1 protease; [1]): 19 ± 0.76 nM; potency compared to 3i (HIV-1 protease): no change in inhibitory activity

Q: What does the source list for COc1ccc(S(=O)(=O)N(CC(C)C)C[C@@H](O)[C@H](Cc2ccccc2)NC(=O)O[C@H]2CC3OCO[C@@H]3C2)cc1 (stereo partly drawn) [Inhibitor 126, (1′S,2′R)-{1′-Benzyl-2′-hydroxy-3′-[isobutyl(4-methoxybenzenesulfonyl)amino]propyl} carbamic acid (1β,2β,4α)-1,2-(methylenedioxy)cyclopent-4-yl ester]?
A: Ki (HIV-1 protease; [2]): 0.4 ± 0.04 nM; fold less potent than the syn isomer 102 (HIV-1 protease; vs 102): 3.5 fold

Q: For COc1ccc(S(=O)(=O)N(CC(C)C)C[C@@H](O)[C@H](Cc2ccccc2)NC(=O)O[C@H]2CC3OCCO[C@@H]3C2)cc1 (stereo partly drawn) [Inhibitor 129, (1′S,2′R)-{1′-Benzyl-2′-hydroxy-3′-[isobutyl(4-methoxybenzenesulfonyl)amino]propyl} carbamic acid (1β,2β,4α)-1,2-(ethylenedioxy)cyclopent-4-yl ester], which Ki (HIV-1 protease; [2]) is on record?
A: 0.5 ± 0.04 nM
